In PubChem BioAssay (NCI):
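Cells were grown in 96-well plates and exposed to each compound for 48 hours at five concentrations; endpoints were interpolated linearly between bracketing concentrations, or set to the highest concentration if not reached. Here, GI50 denotes the concentration required for 50% inhibition of growth. The concentration for full growth arrest is given as TGI.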

Legend:
Experiment in all cases: growth of human tumour cells (NCI), 48 h
[1] = test system: RPMI-8226 leukemia
[2] = test system: NCI-H460 lung
[3] = test system: K-562 leukemia
[4] = test system: MOLT-4 leukemia
[5] = test system: OVCAR-3 ovarian
[6] = test system: TK-10 renal
[7] = test system: NCI-H522 lung
[8] = test system: NCI-H23 lung
[9] = test system: SF-268 CNS
[10] = test system: HOP-62 NSCLC

Compound | TGI [1] [µM] | TGI [2] [µM] | TGI [3] [µM] | TGI [4] [µM] | TGI [5] [µM] | TGI [6] [µM] | TGI [7] [µM] | TGI [8] [µM] | TGI [9] [µM] | TGI [10] [µM] | GI50 [1] [µM]
O=C1CCCc2ccc3c(c21)CC1(Cc2cc4c(cc2C1)CCCC4)C3 | 35.5 | 74.5 | 25.1 | 37.4 | 40.3 | 46.2 | 35.5 | 49 | 77.1 | 57.1 | 
CC(CCC(=O)O)(c1cc(Br)c(O)c(Br)c1)c1cc(Br)c(O)c(Br)c1 | > 100 | > 100 | > 100 | > 100 | > 100 | > 100 | > 100 | > 100 | > 100 | > 100 | 
N.N.NCCCCN.O=C([O-])CCl.O=C([O-])CCl.O=C([O-])CCl.O=C([O-])CCl.[Pt+4].[Pt+4] | > 50 | > 50 | > 50 | > 50 | > 50 | > 50 | > 50 | > 50 | > 50 | > 50 | > 50
NC(=O)c1ncn(C2CCC(CP(=O)(O)O)C2)c1N (configuration not stated) | > 100 | > 100 |  | > 100 | > 100 | > 100 |  | > 100 | > 100 | > 100 | 
CN(C)CCNc1ccccn1 |  | > 100 | > 100 | > 100 | > 100 | > 100 | > 100 | > 100 | > 100 | > 100 | 
C=CCn1c(-c2ccc(N=NNc3ccc(-c4n[nH]c(=S)n4CC=C)cc3)cc2)n[nH]c1=S | 4.63 |  | 7.71 |  |  | > 100 | > 100 | > 100 | 21.5 | 14.8 | 
COC(CO[Si](C)(C)N[Si](C)(C)OCC(OC)c1ccccc1)c1ccccc1 (configuration not stated) | > 100 | > 100 | > 100 | > 100 | > 100 | > 100 |  | > 100 |  | > 100 | 
O=C1N2CCN=C2c2ccccc2C1(O)c1ccccc1 (configuration not stated) | > 100 | > 100 | > 100 | > 100 |  | > 100 |  | > 100 | > 100 | > 100 | 
Cc1cc2nc(N)n[n+]([O-])c2cc1C | > 100 |  | > 100 | > 100 |  | > 100 | > 100 | > 100 | > 100 | > 100 | 
CC(CC(C)[C@H]1CCC2[C@H]3C(CC[C@@]21C)[C@@]1(C)CCC(O)C[C@H]1C[C@@H]3O)C(=O)O (some centres not stated) | > 100 | > 100 | > 100 | > 100 |  | > 100 | > 100 | > 100 | > 100 | > 100 | 
COC(=O)c1ccc2c(c1)CC1(C2)Cc2ccc3c(c2C1)CCC3 (configuration not stated) | 74.3 |  | > 100 | 37.4 | > 100 | > 100 | 66.8 | > 100 | > 100 | 93 | 
